From patent US9199200B2, “Submerged membrane bioreactor system and biological methods for removing bisphenol compounds from municipal wastewater” (Centre de Recherche Industrielle de Québec (CRIQ), priority 2010, dated 2015)

Columns and labels:
[1] = Adsorption kinetics of BPA on inactivated sludge (pseudo-first order, pseudo-second order, Elovich); format: physicochemical
Procedure: According to the second set of assays, adsorption kinetic is evaluated using 200 mL of inactivated sludge at 15 g L^−1 and 2.0 mg/L of BPA is initially used. The flasks are shaken at 150 rpm at 22±2° C. and samples are taken at regular interval times (5, 10, 15, 20, 30, 40, 60, 80, 100, 120 min). Several appropriate models are reported in literature, but for the purposes of the experiments, three models are used, namely the Lagergren model (first order model) as described by Lagergren in Kung Sven. Veten. Hand 24 (1898) 1-39, the pseudo-second-order as described by Ho et al. in Process Biochemistry 34 (1999) 451-465, and the Elovich model as described in Chemical reviews (1960) 267-312.
Adsorption kinetic allows controlling the efficiency of the process and can be helpful to understand the mechanisms of the sorption process. To evaluate the sorption rate, the kinetic data are modeled using pseudo-first order and pseudo-second order equations. The kinetic models parameters are estimated by regression analysis method using Excel™ software. In accordance with Lagegren as cited above and with Bhattacharya et al., J. Env. Eng. ASCE 110 (1984) 110-122, pseudo-first order chemical sorption is described by the following equation (Eq. (15)):
This model is based on the assumption that the rate is proportional to the number of free sites. Integrating Eq. (15) with boundary conditions qt=0 at t=0 and qt=qt at t=t gives (Eq. (16)): ln(qe−qt)=ln qe−k1t (16)
In accordance with Ho et al. as cited above, for the rate constant of pseudo-second order chemical sorption, the following equation (Eq. (17)) has been also applied: […]
A third model, known as Elovich model described in Low et al. cited above, has been applied using the following equation (Eq. (19)): […]
If an amount (q0) of adsorbate is instantaneously adsorbed, after integration equation Eq. (20) becomes (Eq. (21)): […]

[2] = cited from earlier work
[3] = 2.0 mg/L BPA, 15 g/L inactivated sludge

CC(C)(c1ccc(O)cc1)c1ccc(O)cc1 [BPA, 2,2-Bis(4-hydroxyphenyl)propane]
q0 as share of the amount of BPA adsorbed at equilibrium (qe) [1]: 1.2%
k1, pseudo-first order rate constant [1, 3]: 0.032 min⁻¹
k2, pseudo-second order rate constant [1, 3]: 0.194 g/mg/min
q0, amount of BPA instantaneously adsorbed (Elovich) [1, 3]: 0.0013 mg/g
qe, pseudo-first order (Lagergren) [1, 3]: 0.109 mg/g
qe, pseudo-second order [1, 3]: 0.132 mg/g
α (Elovich) [1, 3]: 24.98 g/mg
α (Elovich), second parameter [1, 3]: 0.0040 mg/g/min
Equilibrium adsorption time ([2]; Chen et al., submerged membrane bioreactor process): 30 min
Freundlich coefficient log Kf ([2]; Clara et al.): −0.614
BPA adsorption equilibrium time ([2]; Clara et al., conventional activated sludge reactor): 2 h
